Reference: PMC5769128, “Human UDP-Glucuronosyltransferase 2B4 and 2B7 Are Responsible for Naftopidil Glucuronidation in Vitro” (Frontiers in Pharmacology, 2018)

Key:
UGT2B7 [1] = target: T1, UGT2B7 (Homo sapiens, UniProt P16662); assay: biochemical
T1 sequence (P16662 24-529): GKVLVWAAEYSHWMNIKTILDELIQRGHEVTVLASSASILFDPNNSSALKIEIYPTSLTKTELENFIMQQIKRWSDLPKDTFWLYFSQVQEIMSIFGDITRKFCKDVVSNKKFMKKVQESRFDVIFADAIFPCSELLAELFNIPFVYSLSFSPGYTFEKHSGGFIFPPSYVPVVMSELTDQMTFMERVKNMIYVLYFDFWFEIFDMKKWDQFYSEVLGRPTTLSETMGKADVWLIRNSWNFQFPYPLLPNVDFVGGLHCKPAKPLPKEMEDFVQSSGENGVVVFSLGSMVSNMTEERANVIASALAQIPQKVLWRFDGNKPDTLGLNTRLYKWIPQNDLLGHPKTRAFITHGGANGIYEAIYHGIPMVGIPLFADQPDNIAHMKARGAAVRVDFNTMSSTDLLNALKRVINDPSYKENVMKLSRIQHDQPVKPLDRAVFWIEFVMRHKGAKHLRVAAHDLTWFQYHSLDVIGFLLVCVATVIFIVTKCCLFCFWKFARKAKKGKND
Procedure: The inhibition of UGT1A9 and UGT2B7 by NAF enantiomer was investigated using the pooled HLM, UGT1A9, and UGT2B7 with concentrations similar to that of the NAF enantiomer. Propofol, which was used as the specific substrate of UGT1A9, was added to the incubation. […] Inhibitor constants (Ki value) were estimated by fitting the expressions for competitive, non-competitive, and mixed inhibition models with Dixon plots and Lineweaver–Burk plots.

UGT1A7 = target: T2, UGT1A7 (Homo sapiens, UniProt Q9HAW7); assay: Inhibition screening of recombinant UGTs by NAF enantiomers, UGT1A7 (4-MU); assay type: in vitro ADME; details: recombinant UGT1A7, probe 4-MU, 100 μM NAF enantiomer, read-out: Inhibition of 4-MU-G formation
T2 construct: purchased BD Gentest
T2 sequence (Q9HAW7 26-530): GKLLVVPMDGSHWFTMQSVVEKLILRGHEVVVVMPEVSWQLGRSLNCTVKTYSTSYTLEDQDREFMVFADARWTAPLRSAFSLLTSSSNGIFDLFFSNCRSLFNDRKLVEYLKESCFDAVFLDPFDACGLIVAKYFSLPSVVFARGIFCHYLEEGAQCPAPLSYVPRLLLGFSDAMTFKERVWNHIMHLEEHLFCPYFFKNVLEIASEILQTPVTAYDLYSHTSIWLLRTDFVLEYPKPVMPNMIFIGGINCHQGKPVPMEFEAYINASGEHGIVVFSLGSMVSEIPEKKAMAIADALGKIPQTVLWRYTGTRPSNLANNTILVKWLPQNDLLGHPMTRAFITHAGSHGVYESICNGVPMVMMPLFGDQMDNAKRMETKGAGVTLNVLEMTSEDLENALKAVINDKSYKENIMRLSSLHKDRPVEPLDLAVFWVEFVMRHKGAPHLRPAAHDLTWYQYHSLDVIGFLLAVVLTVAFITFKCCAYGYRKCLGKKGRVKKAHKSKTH
Procedure: (§1) The inhibition screening study was performed by investigating the 12 recombinant UGTs with 10 and 100 μM NAF enantiomer. […] 4-MU, as a non-specific substrate, was added to the other incubated samples. Instead of NAF enantiomers, the same volume of water was added to be the control sample. […] The formation of 4-MU-G and TFP-G produced from the 12 incubation system were analyzed by HPLC. The instrument parameters for the LC were as follows: system, Agilent 1260; Agilent Eclipse Plus C18 (2.1 mm × 50 mm, 1.8 μm, Santa Clara, CA, United States); mobile phase, methanol: 0.1% formic acid in water (0–3 min, 35:65; 3.1–4.5 min, 65:35; 4.6–5 min, 35:65); flow rate, 0.4 mL/min; column temperature, 25°C; and injection volume, 2 μL. The retention times of 4-MU, 4-MU-G, TFP, TFP-G, and MU (IS) were 1.5, 0.5, 2.2, 1.8, and 1.0 min, respectively.

[2] = target: T3, recombinant human UGT1A10 (Homo sapiens, UniProt Q9HAW8); assay: UGT reaction screening of NAF enantiomers, UGT1A10; details: 10 μM substrate, 45 min
T3 sequence (Q9HAW8 26-530): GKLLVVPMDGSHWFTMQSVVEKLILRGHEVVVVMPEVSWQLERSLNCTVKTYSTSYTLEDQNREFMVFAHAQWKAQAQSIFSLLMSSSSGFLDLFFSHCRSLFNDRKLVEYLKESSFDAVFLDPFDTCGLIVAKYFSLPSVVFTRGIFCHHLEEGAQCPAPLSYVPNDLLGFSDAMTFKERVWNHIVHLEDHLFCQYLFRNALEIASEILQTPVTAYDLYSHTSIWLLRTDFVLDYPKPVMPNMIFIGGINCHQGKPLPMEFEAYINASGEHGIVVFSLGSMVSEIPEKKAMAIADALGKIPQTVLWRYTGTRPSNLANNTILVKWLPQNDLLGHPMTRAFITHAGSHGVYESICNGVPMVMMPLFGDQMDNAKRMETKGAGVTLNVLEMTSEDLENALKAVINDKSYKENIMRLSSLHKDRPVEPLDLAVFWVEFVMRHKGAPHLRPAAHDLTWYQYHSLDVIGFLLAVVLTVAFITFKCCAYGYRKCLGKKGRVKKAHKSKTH

UGT2B15 = target: T4, UGT2B15 (Homo sapiens, UniProt P54855); assay: Inhibition screening of recombinant UGTs by NAF enantiomers, UGT2B15 (4-MU); assay type: in vitro ADME; details: recombinant UGT2B15, probe 4-MU, 100 μM NAF enantiomer, read-out: Inhibition of 4-MU-G formation
T4 construct: purchased BD Gentest
T4 sequence (P54855 24-530): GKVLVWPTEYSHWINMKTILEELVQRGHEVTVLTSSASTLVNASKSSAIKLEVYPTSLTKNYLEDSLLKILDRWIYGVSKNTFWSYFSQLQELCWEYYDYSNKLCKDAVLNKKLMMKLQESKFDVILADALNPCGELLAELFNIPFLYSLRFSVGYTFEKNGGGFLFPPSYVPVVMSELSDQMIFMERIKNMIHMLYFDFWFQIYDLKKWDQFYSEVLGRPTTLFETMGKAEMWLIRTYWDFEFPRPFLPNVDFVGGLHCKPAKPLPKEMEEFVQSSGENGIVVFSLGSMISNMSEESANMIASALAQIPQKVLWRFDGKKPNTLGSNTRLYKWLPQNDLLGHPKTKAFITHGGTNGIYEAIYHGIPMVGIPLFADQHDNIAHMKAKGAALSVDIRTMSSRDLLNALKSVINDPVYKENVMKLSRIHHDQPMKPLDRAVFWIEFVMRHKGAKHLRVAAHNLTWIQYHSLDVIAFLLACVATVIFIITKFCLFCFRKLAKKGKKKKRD
Procedure: as §1

UGT2B7 [3] = target: T1, UGT2B7; assay: Inhibition screening of recombinant UGTs by NAF enantiomers, UGT2B7 (4-MU); assay type: in vitro ADME; set-up: purchased BD Gentest; details: recombinant UGT2B7, probe 4-MU, read-out: Inhibition of 4-MU-G formation; for inhibition at 10 μM: 10 μM NAF enantiomer; for inhibition at 100 μM: 100 μM NAF enantiomer
Procedure: as §1

Ki (UGT2B7 [1]) [µM] | inhibition at 100 μM (UGT1A7) [%] | Glucuronide formation by UGT1A10 [2] | inhibition at 100 μM (UGT2B15) [%] | inhibition at 10 μM (UGT2B7 [3]) [%] | inhibition at 100 μM (UGT2B7 [3]) [%] | Compound
12.1 ± 2.2 | > 75 | No R(+)-NAF-G was detected | > 75 | > 50 | > 75 | COc1ccccc1N1CCN(C[C@@H](O)COc2cccc3ccccc23)CC1 [R(+)-NAF]
18.5 ± 3.3 | > 75 | no activity | > 75 | > 50 | > 75 | COc1ccccc1N1CCN(C[C@H](O)COc2cccc3ccccc23)CC1 [S(-)-NAF]
